Measured values from patent publication US6197963A, “Non-peptide peptidomimetics” (The Trustees of the University of Pennsylvania, priority 1998, dated 2001).
Where two headings read alike, the source gives them in different places. Where a SMILES comes first, the peptide text is derived from it.

Key:
NK-1 receptor [1] = biological target: T1, NK-1 receptor (Homo sapiens, UniProt P25103); settings: cited from earlier work
five hSSTRs = experiment: Profile / average over the five human SRIF receptor subtypes; format: binding
β2-adrenergic receptor [2] = settings: cited from earlier work
NK-1 receptor [3] = biological target: T1, NK-1 receptor; experiment: Binding at the NK-1 receptor (Examples 109-110)
hSSTR4 = hSSTR4 (Homo sapiens, UniProt P31391); experiment: Binding at human SRIF receptor subtype hSSTR4; settings: TABLE 3; read-out: hSSTR 4 Ki
Chain of hSSTR4 (P31391 whole entry): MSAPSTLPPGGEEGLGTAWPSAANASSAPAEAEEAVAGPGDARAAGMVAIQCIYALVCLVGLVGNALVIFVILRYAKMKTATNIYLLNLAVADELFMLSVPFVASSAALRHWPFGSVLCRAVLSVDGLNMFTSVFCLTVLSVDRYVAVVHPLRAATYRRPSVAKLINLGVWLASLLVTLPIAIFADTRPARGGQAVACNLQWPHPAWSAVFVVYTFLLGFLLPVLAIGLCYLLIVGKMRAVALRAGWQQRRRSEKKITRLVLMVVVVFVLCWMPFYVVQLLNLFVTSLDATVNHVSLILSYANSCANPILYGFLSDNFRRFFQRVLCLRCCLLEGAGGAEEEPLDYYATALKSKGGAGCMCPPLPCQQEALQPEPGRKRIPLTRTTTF

hSSTR3 = hSSTR3 (Homo sapiens, UniProt P32745); experiment: Binding at human SRIF receptor subtype hSSTR3; settings: TABLE 3; read-out: hSSTR 3 Ki
Chain of hSSTR3 (P32745 whole entry): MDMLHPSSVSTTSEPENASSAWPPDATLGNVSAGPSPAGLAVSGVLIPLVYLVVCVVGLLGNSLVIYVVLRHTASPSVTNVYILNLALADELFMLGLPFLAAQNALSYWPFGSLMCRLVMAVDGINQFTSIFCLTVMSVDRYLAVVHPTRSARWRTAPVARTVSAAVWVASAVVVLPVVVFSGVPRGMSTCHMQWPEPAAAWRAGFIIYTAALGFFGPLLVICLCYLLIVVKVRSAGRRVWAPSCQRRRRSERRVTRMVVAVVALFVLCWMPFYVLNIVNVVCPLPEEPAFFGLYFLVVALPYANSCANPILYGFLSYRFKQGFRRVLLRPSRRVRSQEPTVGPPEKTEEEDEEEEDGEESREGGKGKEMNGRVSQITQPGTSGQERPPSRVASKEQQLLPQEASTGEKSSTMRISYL

[4] = tested on: SRIF receptors on AtT-20 cells; settings: cited from earlier work; for IC50: read-out: IC50 at somatostatin receptors of AtT-20 cells, Nicolaou and Hirschmann, ESCOM 1990; for affinity for the SRIF receptor: relative to O-linked isomers or other glycosides
[5] = tested on: SRIF receptors on AtT-20 cells; experiment: Binding at SRIF receptors of AtT-20 cells (Examples 104-110, Tables 1-3); design: species or system mouse
[6] = biological target: T2, human neurokinin-1 receptor (NK1R) (Homo sapiens, UniProt P25103); experiment: Displacement of 125I-substance P from human NK1R expressed in COS cells (Example 12); format: binding; settings: for IC50: 125I-substance P, COS cells (Example 12)
T2 construct: expressed in transfected cells; host or cells: COS cells
T2 sequence (P25103 whole entry): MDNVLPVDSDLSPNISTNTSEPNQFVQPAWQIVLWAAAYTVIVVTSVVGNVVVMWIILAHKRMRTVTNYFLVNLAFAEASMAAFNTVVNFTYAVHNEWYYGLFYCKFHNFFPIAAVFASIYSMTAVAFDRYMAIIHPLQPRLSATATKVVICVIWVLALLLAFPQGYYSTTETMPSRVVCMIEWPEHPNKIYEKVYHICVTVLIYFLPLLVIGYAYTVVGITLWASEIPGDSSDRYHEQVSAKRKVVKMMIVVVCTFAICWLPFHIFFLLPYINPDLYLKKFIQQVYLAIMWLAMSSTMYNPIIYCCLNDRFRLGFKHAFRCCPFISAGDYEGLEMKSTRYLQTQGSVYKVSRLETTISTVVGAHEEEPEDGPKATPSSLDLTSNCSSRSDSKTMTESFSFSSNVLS
Protocol: The affinity of a variety of compounds for the substance P receptor was determined employing the following procedure.
To express the cloned human neurokinin-1 receptor (NK1R) transiently in COS, the cDNA for the human NK1R was cloned into the expression vector pCDM9 which was derived from pCDM8 (Invitrogen) by inserting the ampicillin resistance gene (nucleotide 1973 to 2964 from Bluescript SK+) into the Sac II site. Transfection of 20 μg of the plasmid DNA into 10 million COS cells was achieved by electroporation in 800 μl of the transfection buffer ([…], 1.2 mM MgCl2, 2.4 mM K2 HPO4, 0.6 mM KH2PO4, […], 10 mM HEPES pH 7.4) at 260 V and 950 μF using the IBI Genezapper (IBI, New Haven, Conn.). The cells were incubated in 10% fetal calf serum, 2 mM glutamine, 100 U/ml penicillin-streptomycin, and 90% DMEM media (Gibco, Grand Island, N.Y.) in 5% CO2 at 37° C. for three days before the binding assay.
The binding assay of human NK1R expressed in COS cells is based on the use of ^125 I-substance P (^125 I-SP, from DuPont, Boston, Mass.) as a radioactively labeled ligand which competes with unlabeled substance P or any other ligand for binding to the human NK1R. Monolayer cell cultures of COS were dissociated by the non-enzymatic solution (Specialty Media, Lavallette, N.J.) and resuspended in appropriate volume of the bind buffer (50 mM Tris pH 7.5, 5 mM MnCl2, 150 mM NaCl, 0.04 mg/ml bacitracin, 0.004 mg/ml leupeptin, 0.2 mg/ml BSA, 0.01 mM phosphoramidon) such that 200 μl of the cell suspension would give rise to about 10,000 cpm of specific ^125 I-SP binding (approximately 50,000 to 200,000 cells). In the binding assay, 200 μl of cells were added to a tube containing 20 μl of 1.5 to 2.5 nM of ^125 I-SP and 20 μl of unlabeled substance P or any other test compound. The tubes were incubated at 4° C. or at room temperature for 1 hour with gentle shaking. The bound radioactivity was separated from unbound radioactivity by GF/C filter (Brandel, Gaithersburg, Md.) which was pre-wetted with 0.1 polyethylenimine. The filter was washed with 3 ml of wash buffer (50 Tris pH 7.5, 5 mM MnCl2, 150 mM NaCl) three times and its radioactivity was determined by gamma counter.
A variety of compounds were tested according to the COS cell procedure. The concentration of compound required to inhibit the binding of substance P to the human neurokinin-1 receptor by 50% was measured.

[7] = tested on: some sixty-five other receptors; experiment: Binding at some sixty-five other receptors
β2-adrenergic receptor [8] = experiment: Binding at the β2-adrenergic receptor; settings: among some sixty-five receptors
SRIF receptor [9] = experiment: Displacement of 125I-CGP-23996 from SRIF receptor on AtT-20 cells (Example 13); format: binding, mouse; settings: for IC50: displacement of 125I-CGP-23996, AtT-20 cells (Example 13), read-out: IC50
hSSTR5 = hSSTR5 (Homo sapiens, UniProt P35346); experiment: Binding at human SRIF receptor subtype hSSTR5; settings: TABLE 3; read-out: hSSTR 5 Ki
Chain of hSSTR5 (P35346 whole entry): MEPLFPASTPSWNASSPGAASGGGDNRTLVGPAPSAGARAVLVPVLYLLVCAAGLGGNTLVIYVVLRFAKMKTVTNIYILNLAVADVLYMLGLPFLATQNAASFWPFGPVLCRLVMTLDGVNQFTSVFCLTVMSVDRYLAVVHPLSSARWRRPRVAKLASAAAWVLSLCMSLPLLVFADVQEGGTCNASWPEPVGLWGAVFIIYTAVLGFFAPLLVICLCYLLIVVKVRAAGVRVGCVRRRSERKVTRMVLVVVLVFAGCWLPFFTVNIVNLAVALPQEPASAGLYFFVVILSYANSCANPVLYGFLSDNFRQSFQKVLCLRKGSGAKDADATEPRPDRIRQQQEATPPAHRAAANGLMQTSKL

hSSTR2 = hSSTR2 (Homo sapiens, UniProt P30874); experiment: Binding at human SRIF receptor subtype hSSTR2; settings: TABLE 3; read-out: hSSTR 2 Ki
Chain of hSSTR2 (P30874 whole entry): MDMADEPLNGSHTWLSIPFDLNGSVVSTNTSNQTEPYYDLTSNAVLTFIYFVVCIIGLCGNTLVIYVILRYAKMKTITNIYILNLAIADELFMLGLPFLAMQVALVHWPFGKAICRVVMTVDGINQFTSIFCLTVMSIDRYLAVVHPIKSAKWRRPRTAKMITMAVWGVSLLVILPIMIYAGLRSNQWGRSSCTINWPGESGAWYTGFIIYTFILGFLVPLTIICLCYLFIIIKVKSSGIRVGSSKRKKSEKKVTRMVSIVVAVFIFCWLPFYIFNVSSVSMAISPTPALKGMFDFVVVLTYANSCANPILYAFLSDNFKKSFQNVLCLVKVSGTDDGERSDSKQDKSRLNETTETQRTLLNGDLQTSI

hSSTR1 = hSSTR1 (Homo sapiens, UniProt P30872); experiment: Binding at human SRIF receptor subtype hSSTR1; settings: TABLE 3; read-out: hSSTR 1 Ki
Chain of hSSTR1 (P30872 whole entry): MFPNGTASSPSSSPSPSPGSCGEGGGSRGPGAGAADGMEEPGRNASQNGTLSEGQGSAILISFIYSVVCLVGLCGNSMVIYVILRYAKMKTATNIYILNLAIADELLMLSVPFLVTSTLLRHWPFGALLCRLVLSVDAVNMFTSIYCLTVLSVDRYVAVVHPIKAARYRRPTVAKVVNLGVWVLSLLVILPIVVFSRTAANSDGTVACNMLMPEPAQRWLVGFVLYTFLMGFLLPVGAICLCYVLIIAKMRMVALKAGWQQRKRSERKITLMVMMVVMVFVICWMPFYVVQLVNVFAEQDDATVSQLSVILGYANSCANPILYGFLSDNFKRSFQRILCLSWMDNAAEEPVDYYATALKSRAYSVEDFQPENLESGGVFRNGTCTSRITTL

β-Adrenergic receptor = experiment: Displacement of 125I-CYP from β-adrenergic receptor, AtT-20; format: binding, mouse
[10] = tested on: SRIF receptors present on AtT-20 cells; settings: radioligand 125I-Tyr11-SRIF; read-out: IC50 against 125I-Tyr11-SRIF; cited from earlier work
SRIF receptor [11] = settings: radioligand 125I-CGP-23996; read-out: IC50 when 125I-CGP-23996 was the radioligand; cited from earlier work
[12] = TABLE 2 (Example 106), read-out: AtT-20 cells IC50

T1 sequence (P25103 whole entry): as the sequence (P25103 whole entry) above

In the case of NCCCCCOC[C@H]1O[C@@H](OCCc2c[nH]c3ccccc23)[C@H](OCc2ccccc2)[C@@H](OCc2ccccc2)[C@@H]1OCc1ccccc1 [III-4a, 2-(1H-Indol-3-yl)ethyl 2,3,4-Tri-O-benzyl-6-O-(5-aminopentyl)-β-D-glucopyranoside], the “binding / antagonism at the NK-1 receptor” value (NK-1 receptor [1]) is listed as “potent antagonist ligands”, the “hSSTR subtype affinity profile” value (five hSSTRs) is listed as “high affinities for hSSTR2 and hSSTR4 and a low affinity for SSTR1” and the “binding / antagonism at the β2-adrenergic receptor” value (β2-adrenergic receptor [2]) is listed as “bind the β2 -adrenergic receptor as antagonists”. The “binding of the NK-1 receptor” value (NK-1 receptor [3]) was “did not bind”, the IC50 (NK-1 receptor [3]; read-out: affinity at the NK-1 receptor) was 150 nM and the Ki (hSSTR4) was 1100 nM. For the same compound, the Ki (hSSTR3) was 2.8 µM and the IC50 [4] was roughly 15 µM.
With CC(=O)NCCCCCOC[C@H]1O[C@@H](OCCc2c[nH]c3ccccc23)[C@H](OCc2ccccc2)[C@@H](OCc2ccccc2)[C@@H]1OCc1ccccc1 [III-4d] the “activity / affinity at SRIF receptors of AtT-20 cells” value [5] was “inactive”, the “binding of the SRIF receptors” value ([5]; among some sixty-five receptors) was “did not bind” and the IC50 [6] was 56 nM. For the same compound, the “binding of some sixty-five other receptors” value [7] was “did not bind some sixty-five other receptors” and the “binding of the β2-adrenergic receptors” value (β2-adrenergic receptor [8]) was “did not bind”.
OCCCCCNC[C@H]1O[C@@H](OCCc2c[nH]c3ccccc23)[C@H](OCc2ccccc2)[C@@H](OCc2ccccc2)[C@@H]1OCc1ccccc1 [III-4e, 2-(1H-Indol-3-yl)ethyl 2,3,4-Tri-O-benzyl-6-amino-6-deoxy-6-N-(5-hydroxypentyl)-β-D-glucopyranoside] showed an IC50 [5, 12] of 14 µM, an IC50 [6] of 120 nM and an IC50 (SRIF receptor [9]) of 9500 nM. For the same compound, the “affinity for the SRIF receptor” value [4] was “about the same as those of III-4a and III-5b”.
In the case of NCCCCCOC[C@H]1O[C@@H](OCCc2c[nH]c3ccccc23)[C@H](OCc2ccccc2)C[C@@H]1OCc1ccccc1 [III-5a, 2-(1H-Indol-3-yl)ethyl 2,4-Di-O-benzyl-3-deoxy-6-O-(5-aminopentyl)-β-D-glucopyranoside], the “binding / antagonism at the NK-1 receptor” value (NK-1 receptor [1]) is given as “potent antagonist ligands”, the IC50 ([5]; TABLE 1 (Example 105), read-out: AtT-20 cells 50 IC) is given as 8.4 µM and the IC50 ([5]; TABLE 3 (Example 108), read-out: AtT-20 IC50) is given as 8.4 µM. For the same compound, the Ki (hSSTR5) was 5.1 µM, the Ki (hSSTR2) was 3.1 µM and the “hSSTR subtype affinity profile” value (five hSSTRs) was “high affinities for hSSTR2 and hSSTR4 and a low affinity for SSTR1”. The “binding / antagonism at the β2-adrenergic receptor” value (β2-adrenergic receptor [2]) was “bind the β2 -adrenergic receptor as antagonists”, the Ki (hSSTR4) was 1700 nM and the Ki (hSSTR3) was 3.3 µM. For the same compound, the IC50 [4] was roughly 10 µM and the Ki (hSSTR1) was 4.1 µM.
Compound OCCCCCNC[C@H]1O[C@@H](OCCc2c[nH]c3ccccc23)[C@H](OCc2ccccc2)C[C@@H]1OCc1ccccc1 [III-5c, 2-(1H-Indol-3-yl)ethyl 2,4-Di-O-benzyl-3,6-dideoxy-6-amino-6-N-(5-hydroxypentyl)-β-D-glucopyranoside] has an IC50 [5, 12] of 5.1 µM, an IC50 [6] of 180 nM and an IC50 (SRIF receptor [9]) of 1300 nM. For the same compound, the “affinity for the SRIF receptor” value [4] was “about the same as those of III-4a and III-5b”.
In the case of C[C@@H](O)[C@@H]1NC(=O)[C@H](CCCCN)NC(=O)[C@@H](Cc2c[nH]c3ccccc23)NC(=O)[C@H](Cc2ccccc2)NC(=O)[C@@H]2CCCN2C(=O)[C@H](Cc2ccccc2)NC1=O [L-363,301, reference compound] (HELM PEPTIDE1{P.F.[dW].K.T.F}$PEPTIDE1,PEPTIDE1,1:R1-6:R2$$$V2.0), the “binding / antagonism at the NK-1 receptor” value (NK-1 receptor [1]) is given as “do not bind”, the IC50 (SRIF receptor [9]) is given as 18.7 nM and the “binding / antagonism at the β2-adrenergic receptor” value (β2-adrenergic receptor [2]) is given as “do not bind”.
For CO[C@@H]1O[C@H](COCCCCCN)[C@@H](OCc2ccccc2)[C@H](OCc2ccccc2)[C@H]1OCc1ccccc1 [Methyl 6-O-(5-aminopentyl)-2,3,4-tri-O-benzyl-β-D-glucopyranoside], the “binding by the substance P receptor” value [6] was “is bound by the substance P and SRIF receptors”, the IC50 [6] was 400 nM and the “binding by the SRIF receptor” value (SRIF receptor [9]) was “is bound by the substance P and SRIF receptors”. The IC50 (SRIF receptor [9]) was 40000 nM, the “binding of the β-adrenergic receptor” value (β-Adrenergic receptor) was “does not bind the β-adrenergic receptor” and the Inhibition (β-Adrenergic receptor; 125I-CYP (0.1 nM), AtT-20) was 0%.
In the case of somatostatin [SRIF, reference compound], the “binding / antagonism at the NK-1 receptor” value (NK-1 receptor [1]) is listed as “do not bind”, the IC50 (SRIF receptor [9]) is listed as 9.3 nM and the “hSSTR subtype affinity profile” value (five hSSTRs) is listed as “decreases in the order SSTR2>>SSTR1>SSTR3>SSTR4 and SSTR5”. The IC50 [10] was 0.83 nM, the IC50 (SRIF receptor [11]) was 9.3 nM and the “binding / antagonism at the β2-adrenergic receptor” value (β2-adrenergic receptor [2]) was “do not bind”. For the same compound, the IC50 [4] was roughly 0.0093 µM.
